Source: patent US5871954A, “Fatty acid analog enzyme substrates” (Washington University, priority 1993, dated 1999)
“Also recorded” adds a separate entry of the source. Starred links: 1 amine or outer side, 2 acyl side, 3 side chain; linkers in the order of their positions; H or OH if unused. Non-standard residues stand in square brackets, D forms with d. No end group written: not given here. *: point of attachment. Tyr(125I) = 125I-iodotyrosine, O=C([C@H](Cc1ccc(O[*:3])c([125I])c1)N[*:1])[*:2]; 11‑(ethylthio)undecanoyl = CCSCCCCCCCCCCC(=O)*

Legend:
yeast NMT = target: T1, yeast NMT (Saccharomyces cerevisiae, UniProt P14743); assay: in vitro yeast NMT assay, kinetics of fatty acid analog substrates with iodinated peptide GNAAS[125I]YRR; assay type: biochemical; conditions: for Peptide Vm / Acyl CoA Vm: Table 2, relative to myristate control 100%; for Peptide Vm: fatty acid analog at 15 μM; for Acyl CoA Vm: peptide at its Km
T1 construct: 11,000-fold purified preparation of yeast NMT; from tissue; host or cells: yeast
T1 sequence (P14743 1-455): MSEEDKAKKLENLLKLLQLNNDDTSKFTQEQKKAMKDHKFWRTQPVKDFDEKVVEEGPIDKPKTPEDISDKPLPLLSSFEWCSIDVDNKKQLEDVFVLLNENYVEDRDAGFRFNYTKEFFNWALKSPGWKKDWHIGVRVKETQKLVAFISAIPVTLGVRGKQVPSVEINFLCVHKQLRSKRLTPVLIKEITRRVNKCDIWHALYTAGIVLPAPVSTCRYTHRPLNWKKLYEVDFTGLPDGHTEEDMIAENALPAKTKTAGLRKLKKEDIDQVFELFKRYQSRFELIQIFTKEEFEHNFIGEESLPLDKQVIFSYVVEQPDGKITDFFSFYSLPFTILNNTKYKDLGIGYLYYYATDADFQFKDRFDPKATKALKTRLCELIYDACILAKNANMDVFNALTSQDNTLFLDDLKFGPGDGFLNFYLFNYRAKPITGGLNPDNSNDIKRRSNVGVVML
From the text: Similar results were obtained using an 11,000-fold purified preparation of yeast NMT [Towler et al., Proc. Natl. Acad. Sci. USA 84, 2708-2712 (1987)].
Other illustrative examples of the oxy- and thio-substituted fatty acid analog substrate compounds of the invention were synthesized in Examples 6 to 14 and tested in Example 15 as substrates for the yeast NMT.
(§1) For these Examples, each analog synthesized is characterized by ^1 H and 13C NMR as well as mass spectroscopy. The analogs are then characterized kinetically as NMT substrates. Briefly, fatty acid analogs are converted to their CoA esters with Pseudomonas CoA ligase and incubated with the iodinated peptide GNAAS[^125 I]YRR and a source of NMT. […] The radiolabelled peptide is then used at concentrations which will lead to 50% enzyme saturation (i.e., at its Km) for the determination of fatty acid analog kinetic characteristics. Representative analogs with sulfur or oxygen in the backbone of the fatty acid chain serve as good substrates for NMT in vitro and will compete for incorporation of ^3 H labelled myri-state into yeast proteins in vivo. In addition, these analogs differ markedly in hydrophobicity from myri-state as measured both by C18 reverse phase HPLC elution profiles and by 2-octanol/water partition coefficients. The analog CH3 O (CH2)11 COOH, for example, partitions into water 20 fold better than myristate. It is believed that these analogs will be incorporated into mammalian acylproteins in vivo and that their incorporation into these proteins will drastically alter protein processing or targeting. It is further believed that the incorporation of fatty acid analogs of both myristate and palmitate into ester linked and phosphatidyl inositol glycan linked acylproteins will also dramatically alter their properties. Since many viral proteins and oncogenes are acylated, these compounds represent a new class of potential antiviral and antineoplastic agents.

[1] = C18 reverse phase HPLC elution of acyl peptides (hydrophobicity); assay type: physicochemical; conditions: for Elution Time: Table 2, C18 reverse phase HPLC; for elution time of fatty acyl derivative of GNAAAARR: HPLC; for elution earlier than the corresponding myristoyl peptide: acyl-GNAASYRR[125I]
Experimental: The fatty acid analog acyl-peptide eluted 7 minutes earlier than the corresponding myristoyl peptide. The free peptide elutes in the void volume (3-5 minutes).
This difference was evident when the HPLC elution characteristics of fatty acyl peptides were examined. The elution time of a particular acyl-peptide depends strongly on the peptide sequence as well as on the acyl chain attached to that peptide. For example, the elution times of fatty acyl derivatives of GNAAAARR are (in minutes) decanoic acid, 9; dodecanoic acid, 18; myristic acid, 24; and palmitic acid, 30. Elution times for fatty acyl derivatives of GNAAS[^125 I]YRR are 23 and 28 minutes for C12 and C14 fatty acids, respectively (FIG. 2). […] Such a change could alter the biological activity of myristoyl proteins.
as §1

wheat germ NMT = assay: in vitro wheat germ NMT myristoylation assay, kinetics with iodinated peptide GNAAS[125I]YRR; assay type: biochemical
Experimental: Myristoyl CoA and fatty acid analog CoA were generated by incubation of the fatty acid or analog with CoA, ATP and CoA ligase. This reaction mixture was added to wheat germ NMT and Gly-Asn-Ala-Ala-Ser-[^125 I]Tyr-Arg-Arg in the presence of 0.03% Triton® X-100. Reaction products were characterized by reverse phase HPLC and gamma counting.
The invention is illustrated in greater detail in the following Examples 1 to 15 by the synthesis and testing of representative compounds of the invention as myristoylating enzyme substrates. Accordingly, the invention is first illustrated in Examples 1 to 5 by the chemical synthesis of a sulfur-containing analog of myristic acid, namely 11-(ethylthio)undecanoicacid, CH3 CH2 --S--(CH2)10 COOH, which is then tested in vitro as a wheat germ NMT substrate. Wheat germ NMT is a protein similar to yeast NMT. The purity and chemical identity of the synthesized compound were examined using ^1 H and ^13 C NMR as well as mass spectroscopy. The assay that was used to characterize the substrate specificity of wheat germ NMT measures the rate of attachment of a radiolabelled fatty acid to an unlabelled peptide. The fatty acid analog synthesized was nonradioactive.
The in vitro assay for NMT activity requires the enzymatic generation of fatty acyl CoA. Since the Pseudomonas acyl CoA ligase is quite nonspecific [Shimizo et al., Anal. Biochem. 107, 193-198 (1980)] and is used in excess, it should equally well convert myristic acid and 11-(ethylthio)undecanoic acid to the corresponding CoA esters. It is, therefore, believed that the data represent the relative catalytic efficiency of fatty acyl CoA and analog CoA for wheat germ NMT.
Assays for NMT activity were performed using a procedure detailed previously by Towler and Glaser, Proc. Natl. Acad. Sci. USA 83, 2812-2816 (1986). Briefly, the in vitro assay measures the transfer of radiolabelled fatty acid from acyl CoA to a synthetic peptide substrate. The acylpeptide product is identified by reverse phase HPLC. Time and enzyme dependence were evaluated by varying the reaction time or the enzyme concentration. […] Fatty acid specificity was examined essentially as described by Towler et al., J. Biol. Chem. 262, 1030-1036 (1987), except that the peptide Gly-Ser-Ser-Lys-Ser-Lys-Pro-Lys rather than Gly-Asn-Ala-Ala-Ala-Ala-Arg-Arg was used to compare palmitate and myristate utilization by wheat germ NMT. This was necessary because of the presence of a large, peptide-independent peak which co-eluted with a palmitoyl-Gly-Asn-Ala-Ala-Ala-Ala-Arg-Arg standard. [^3 H]Palmitate and [^3 H]myristate were used in this comparison. [^14 C]fatty acids were used to compare C-10, C-12 and C-14 chain lengths. Fatty acyl CoA concentrations in these assays were determined by a modification of the method of Hosaka et al., Methods Enzymol. 71, 325-333 (1981).
Gly-Asn-Ala-Ala-Ser-[^125 I]Tyr-Arg-Arg as prepared in Example 2, above, was tested in an in vitro myristoylation system which was modified from that used with radiolabelled fatty acids. […] 20-fold more wheat germ NMT (480-fold purified as in Example 3, above) was used for these assays than for assays which employed [^3 H] myristate. […] Double reciprocal plots were generated for the iodinated peptide with both myristic acid and the sulfur analog by altering the peptide concentration in the presence of a constant amount of fatty acid or analog. […] The assays contained 0.03% Triton X-100 to maintain the solubility of the fatty acids.

[2] = target: T2, myristoyl CoA: protein N-myristoyl transferase (NMT) (Saccharomyces cerevisiae, UniProt P14743); assay: substrate activity for myristoylating enzyme (general statement); assay type: biochemical; conditions: in words
T2 construct: CoA ester made in situ by Pseudomonas CoA ligase
T2 sequence (P14743 1-455): T1 sequence (P14743 1-455)
Experimental: Purification and use of this enzyme are described, for example, by Towler et al., Proc. Natl. Acad. Sci. USA 84, 2708-2712 (1987); J. Biol. Chem. 262, 1030-1036 (1987).
as §1, with “It is further believed that the incorporation of fatty acid analogs of both myristate and palmitate into ester linked and phosphatidyl inositol glycan linked acylproteins will also dramatically alter their properties. Since many viral proteins and oncogenes are acylated, these compounds represent a new class of potential antiviral and antineoplastic agents.” left out

[3] = C-18 reverse phase HPLC, FIG. 2
[4] = iodinated peptide 40 μM, 0.03% Triton X-100, FIG. 1

Compound | Acyl CoA Vm (yeast NMT) | Elution Time [1] | Peptide Vm (yeast NMT) | also measured
CCCCCCCCCCCC(=O)O [dodecanoic acid, reference compound] | – | – | – | elution time of fatty acyl derivative of GNAAS[125I]YRR [1, 3]: 23 min; elution time of fatty acyl derivative of GNAAAARR [1]: 18 min
CCCCCCCCCCCCCCCC(=O)O [palmitic acid, reference compound] | – | – | – | elution time of fatty acyl derivative of GNAAAARR [1]: 30 min
CCSCCCCCCCCCCC(=O)SCCNC(=O)CCNC(=O)[C@H](O)C(C)(C)COP(=O)(O)OP(=O)(O)OC[C@H]1O[C@@H](n2cnc3c(N)ncnc32)[C@H](O)[C@@H]1OP(=O)(O)O | – | – | – | substrate quality vs myristoyl CoA (wheat germ NMT; wheat germ NMT): at least as good a substrate for wheat germ NMT as myristoyl CoA itself
CCCCCCCCCCCCCC(=O)O [CH3 (CH2)12 COOH, myristic acid, reference compound] | 100% | 26 min | 100% | elution time of fatty acyl derivative of GNAAS[125I]YRR [1, 3]: 28 min; elution time of fatty acyl derivative of GNAAAARR [1]: 24 min
CCSCCCCCCCCCCC(=O)O [CH3 CH2 S(CH2)10 COOH, 11-(Ethylthio)undecanoic acid] | 130% | 18 min | 98% | effect on the kinetic characteristics of the peptide substrate (wheat germ NMT; in words, vs myristic acid): did not significantly alter the kinetic characteristics of the peptide substrate; Km (as CoA ester), times higher than for myristate (wheat germ NMT; [4]): 1.5 times; Vmax (as CoA ester), times higher than for myristate (wheat germ NMT; [4]): 3.5 times; apparent maximal velocity, times higher than with myristic acid (wheat germ NMT; peptide substrate varied): 2.3 times; Km and Vmax vs C14:0 fatty acid (yeast NMT; 11,000-fold purified yeast NMT): indistinguishable from that of the C14:0 fatty acid; hydrophobicity ([1]; in words, vs myristic acid): decreases its hydrophobicity; also recorded: significantly different from that of myristic acid; effectiveness as substrate [2]: leaves intact its ability to act as a substrate
CCCCOCCCCCCCCCCC(=O)O [CH3 (CH2)3 O(CH2)10 COOH, 11-(1-Butoxy)undecanoic acid] | 80% | 19 min | 25% | effectiveness as substrate [2]: less effective than the analogs based on C13 -C14 fatty acids
CCCCCCCCCC(=O)O [decanoic acid, reference compound] | – | – | – | elution time of fatty acyl derivative of GNAAAARR [1]: 9 min
Gly-Asn-Ala-Ala-Ser-[^125 I]Tyr-Arg-Arg [free peptide, reference compound] | – | – | – | elution of free peptide (void volume) [1, 3]: 3 to 5 min
11-(ethylthio)undecanoyl-GNAASYRR[^125 I]: fatty acid analog acyl-peptide ({11‑(ethylthio)undecanoyl}-GNAAS[Tyr(125I)]RR) | – | – | – | elution earlier than the corresponding myristoyl peptide [1, 3]: 7 min; elution earlier than the corresponding myristoyl peptide ([1]; C-18 reverse phase HPLC, FIG. 2, listed as 11-(ethylthio)undecanoyl-GNAAS [^125 I]YRR): seven minutes earlier

Further lines, with some results ahead:

Acyl CoA Vm (yeast NMT) | Elution Time [1] | Compound | Peptide Vm (yeast NMT) | also measured
64% | 12 min | CCOCCCCCCCCCCC(=O)O [CH3 CH2 O(CH2)10 COOH, 11-(Ethoxy)undecanoic acid] | 62% | –
320% | 9 min | C#CCOCCCCCCCCCC(=O)O [HC≡CCH2 O(CH2)9 COOH, 10-(2-Propynoxy)decanoic acid] | 200% | –
250% | – | CCCOCCCCCCCCCC(=O)O [CH3 (CH2)2 O(CH2)9 COOH, 10-(Propoxy)decanoic acid] | 150% | –
160% | 21 min | CCCCCCCCSCCCCC(=O)O [CH3 (CH2)7 S(CH2)4 COOH, 5-(Octylthio)pentanoic acid] | – | –
– | 16 min | CCCCCCCCOCCCCC(=O)O [CH3 (CH2)7 O(CH2)4 COOH, 5-(octyloxy)pentanoic acid] | – | –
250% | 18 min | CCCSCCCCCCCCCC(=O)O [CH3 (CH2)2 S(CH2)9 COOH, 10-(Propylthio)decanoic acid] | – | –
